Source: the supplement of paper PMC10307832

Experiments:
Assay in all cases: relative viability (nuclei count vs DMSO), 5 days (fraction); higher = more cells survive
Idelalisib + Lapatinib = compound: CC[C@H](Nc1ncnc2[nH]cnc12)c1nc2cccc(F)c2c(=O)n1-c1ccccc1 [Idelalisib] + CS(=O)(=O)CCNCc1ccc(-c2ccc3ncnc(Nc4ccc(OCc5cccc(F)c5)c(Cl)c4)c3c2)o1 [Lapatinib] (partner 2 µM)
Summary of the method: (§1)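 Dosing by pin tool came one day after lung cancer cell lines were seeded in 1536-well plates, using either one drug or a fixed anchor-drug dose plus five library-drug doses (not always all listed) in √10 steps. After 5 days, nuclei were counted on 4× images. Relative viability is treated-well nuclei count divided by vehicle-well nuclei count, and values are medians of duplicate plates.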

Idelalisib + AZD7762 = compound: CC[C@H](Nc1ncnc2[nH]cnc12)c1nc2cccc(F)c2c(=O)n1-c1ccccc1 [Idelalisib] + NC(=O)Nc1cc(-c2cccc(F)c2)sc1C(=O)N[C@H]1CCCNC1 [AZD7762] (partner 0.2 µM)
Summary of the method: as §1

Pemetrexed + Foretinib = compound: Nc1nc2[nH]cc(CCc3ccc(C(=O)N[C@@H](CCC(=O)O)C(=O)O)cc3)c2c(=O)[nH]1 [Pemetrexed] + COc1cc2c(Oc3ccc(NC(=O)C4(C(=O)Nc5ccc(F)cc5)CC4)cc3F)ccnc2cc1OCCCN1CCOCC1 [Foretinib] (partner 0.25 µM)
Summary of the method: as §1

Pemetrexed + Dasatinib = compound: Nc1nc2[nH]cc(CCc3ccc(C(=O)N[C@@H](CCC(=O)O)C(=O)O)cc3)c2c(=O)[nH]1 [Pemetrexed] + Cc1nc(Nc2ncc(C(=O)Nc3c(C)cccc3Cl)s2)cc(N2CCN(CCO)CC2)n1 [Dasatinib] (partner 0.075 µM)
Summary of the method: as §1

Cell Line | relative viability (Idelalisib + Lapatinib; first compound 0.04 µM) | relative viability (Idelalisib + Lapatinib; first compound 0.1265 µM) | relative viability (Idelalisib + Lapatinib; first compound 0.4 µM) | relative viability (Idelalisib + Lapatinib; first compound 1.265 µM) | relative viability (Idelalisib + Lapatinib; first compound 4 µM) | relative viability (Idelalisib + AZD7762; first compound 0.04 µM) | relative viability (Idelalisib + AZD7762; first compound 0.1265 µM) | relative viability (Idelalisib + AZD7762; first compound 0.4 µM) | relative viability (Idelalisib + AZD7762; first compound 1.265 µM) | relative viability (Idelalisib + AZD7762; first compound 4 µM) | relative viability (Pemetrexed + Foretinib; first compound 0.002 µM) | relative viability (Pemetrexed + Foretinib; first compound 0.006325 µM) | relative viability (Pemetrexed + Foretinib; first compound 0.02 µM) | relative viability (Pemetrexed + Foretinib; first compound 0.06325 µM) | relative viability (Pemetrexed + Foretinib; first compound 0.2 µM) | relative viability (Pemetrexed + Dasatinib; first compound 0.002 µM) | relative viability (Pemetrexed + Dasatinib; first compound 0.006325 µM) | relative viability (Pemetrexed + Dasatinib; first compound 0.02 µM) | relative viability (Pemetrexed + Dasatinib; first compound 0.06325 µM) | relative viability (Pemetrexed + Dasatinib; first compound 0.2 µM)
NCI-H1651 | 0.707 | 1 | 0.577 | 0.825 | 0.868 | 0.522 | 0.456 | 0.46 | 0.245 | 0.519 | 0.673 | 0.772 | 0.826 | 0.754 | 0.737 | 0.388 | 0.357 | 0.439 | 0.346 | 0.428
EBC-1 | 0.225 | 0.198 | 0.233 | 0.239 | 0.222 | – | – | – | – | – | 0.117 | 0.112 | 0.107 | 0.0993 | 0.0915 | – | – | – | – | –
COR-L 105 | 0.385 | 0.353 | 0.294 | 0.374 | 0.362 | – | – | – | – | – | 0.97 | 1.16 | 1.17 | 1.15 | 1.24 | 0.349 | 0.216 | 0.399 | 0.363 | 0.398
NCI-H1792 | 0.465 | 0.942 | 0.903 | 0.878 | 0.918 | 0.737 | 0.803 | 0.452 | 0.493 | 0.388 | – | – | – | – | – | 0.782 | 0.789 | 0.938 | 0.747 | 0.81
SW 1573 | 1.17 | 1.06 | 0.913 | 1.12 | 1.27 | – | – | – | – | – | 0.909 | 0.808 | 0.951 | 0.979 | 0.855 | 0.524 | 0.448 | 0.735 | 0.593 | 0.42
COR-L23 | 1.09 | 1.14 | 0.711 | 1.29 | 0.926 | – | – | – | – | – | 1.01 | 1.07 | 0.946 | 0.497 | 0.239 | 0.457 | 0.468 | 0.396 | 0.263 | 0.135
A549 | 0.96 | 0.996 | 0.924 | 0.923 | 0.832 | – | – | – | – | – | 0.935 | 0.902 | 1.08 | 1.02 | 0.925 | – | – | – | – | –
ChaGo-K-1 | – | – | – | – | – | 0.943 | 0.885 | 0.826 | 0.606 | 0.841 | 0.991 | 0.919 | 0.948 | 0.529 | 0.301 | 0.59 | 0.555 | 0.591 | 0.266 | 0.237
NCI-H2023 | 0.837 | 1.01 | 0.525 | 0.775 | 0.724 | – | – | – | – | – | – | 0.739 | 0.885 | 0.888 | 0.319 | 0.506 | 0.505 | 0.6 | 0.433 | 0.195
NCI-H441 | – | – | – | – | – | 1.31 | 1.08 | – | 0.715 | 1.32 | 1.02 | 0.926 | 1.08 | 0.741 | 0.438 | 0.429 | 0.573 | 0.556 | 0.392 | 0.273
NCI-H2342 | – | – | – | – | – | 0.626 | 0.498 | 0.49 | 0.484 | 0.46 | 0.997 | 1.08 | 0.94 | 1.05 | 0.915 | 0.257 | 0.322 | 0.351 | 0.325 | 0.321
